Measurements from ChEMBL document CHEMBL1201862, “PubChem BioAssay data set” (2004).
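48-hour exposure; five concentrations; linearly interpolated endpoints. GI50 marks 50% less growth.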 The source made the active and inactive calls. No stated cut-off is given here; in the data, active = GI50 up to about 1.1 µM and inactive = higher.

Key:
Experiment in all cases: NCI tumour cell line growth inhibition, 48 h
[1] = system: Malme-3M
[2] = system: SK-MEL-2
[3] = system: ACHN
[4] = system: SNB-75
[5] = system: Hs-578T
[6] = system: IGROV-1
[7] = system: NCI-H226
[8] = system: HOP-92
[9] = system: SF-268
[10] = system: DU-145
[11] = system: MOLT-4
[12] = system: NCI-H522
[13] = system: PC-3
[14] = system: MCF7
[15] = system: CCRF-CEM
[16] = system: NCI/ADR-RES
[17] = system: RXF 393
[18] = system: SN12C
[19] = system: SK-OV-3
[20] = system: SR

O/N=C(\CC(O)(C(F)(F)F)C(F)(F)F)c1cccs1
GI50 [1]: > 10 µM (inactive) | GI50 [2]: > 10 µM (inactive) | GI50 [3]: > 10 µM (inactive) | GI50 [4]: 7.46 µM (inactive) | GI50 [5]: > 10 µM (inactive) | GI50 [6]: > 10 µM (inactive) | GI50 [7]: > 10 µM (inactive) | GI50 [8]: > 10 µM (inactive) | GI50 [9]: > 10 µM (inactive) | GI50 [10]: > 10 µM (inactive) | GI50 [11]: > 10 µM (inactive) | GI50 [12]: > 10 µM (inactive) | GI50 [13]: > 10 µM (inactive) | GI50 [14]: > 10 µM (inactive) | GI50 [15]: > 10 µM (inactive) | GI50 [16]: > 10 µM (inactive) | GI50 [17]: > 10 µM (inactive) | GI50 [18]: > 10 µM (inactive) | GI50 [19]: > 10 µM (inactive)

Cn1c(=O)n2n(c1=O)C([S+]([O-])c1ccccc1)C2 (stereo not given)
GI50 [2]: > 100 µM (inactive) | GI50 [3]: > 100 µM (inactive) | GI50 [4]: > 100 µM (inactive) | GI50 [5]: > 100 µM (inactive) | GI50 [6]: 32.1 µM (inactive) | GI50 [8]: > 100 µM (inactive) | GI50 [9]: > 100 µM (inactive) | GI50 [10]: > 100 µM (inactive) | GI50 [11]: 18.5 µM (inactive) | GI50 [20]: 38.3 µM (inactive) | GI50 [12]: 30.8 µM (inactive) | GI50 [13]: 33.4 µM (inactive) | GI50 [14]: > 100 µM (inactive) | GI50 [15]: 20.2 µM (inactive) | GI50 [16]: > 100 µM (inactive) | GI50 [17]: > 100 µM (inactive) | GI50 [18]: > 100 µM (inactive) | GI50 [19]: > 100 µM (inactive)

CC1OC(OC2C(O[C@H]3CC[C@@]4(C)[C@@H](CC[C@@H]5[C@@H]4CC[C@]4(C)[C@@H]6[C@H](C[C@@H]54)O[C@]4(CC[C@@H](C)CO4)[C@H]6C)C3)OC(CO)C(OC3OC(CO)C(O)C(OC4OCC(O)C(O)C4O)C3OC3OCC(O)C(O)C3O)C2O)C(O)C(O)C1O (stereo not given in full)
GI50 [1]: 1.26 µM (inactive) | GI50 [2]: 1.02 µM (active) | GI50 [3]: 0.942 µM (active) | GI50 [4]: 1.45 µM (inactive) | GI50 [5]: 1.03 µM (active) | GI50 [6]: 1.01 µM (active) | GI50 [7]: 1.87 µM (inactive) | GI50 [8]: 1.67 µM (inactive) | GI50 [9]: 1.69 µM (inactive) | GI50 [10]: 1.32 µM (inactive) | GI50 [11]: 1.04 µM (active) | GI50 [12]: 0.676 µM (active) | GI50 [13]: 0.64 µM (active) | GI50 [14]: 0.342 µM (active) | GI50 [15]: 0.224 µM (active) | GI50 [16]: 1.58 µM (inactive) | GI50 [17]: 0.54 µM (active) | GI50 [19]: 1.9 µM (inactive)

COc1ccc(C2(O)C(S(=O)(=O)c3ccc(C)cc3)=Cc3ccc(OC)cc32)cc1 (stereo not given)
GI50 [2]: 43.2 µM (inactive) | GI50 [3]: 37.4 µM (inactive) | GI50 [4]: 25.9 µM (inactive) | GI50 [5]: 23.6 µM (inactive) | GI50 [6]: > 100 µM (inactive) | GI50 [7]: > 100 µM (inactive) | GI50 [9]: 31.6 µM (inactive) | GI50 [10]: 71.3 µM (inactive) | GI50 [11]: > 100 µM (inactive) | GI50 [20]: > 100 µM (inactive) | GI50 [12]: 39.9 µM (inactive) | GI50 [13]: 53.8 µM (inactive) | GI50 [14]: 35 µM (inactive) | GI50 [15]: > 100 µM (inactive) | GI50 [16]: > 100 µM (inactive) | GI50 [18]: 73.8 µM (inactive) | GI50 [19]: 35.6 µM (inactive)

NC(=O)C(=CNC(=S)Nc1cccc(C(F)(F)F)c1)C(N)=O
GI50 [2]: > 100 µM (inactive) | GI50 [3]: > 100 µM (inactive) | GI50 [4]: 51.9 µM (inactive) | GI50 [5]: > 100 µM (inactive) | GI50 [7]: > 100 µM (inactive) | GI50 [8]: > 100 µM (inactive) | GI50 [9]: > 100 µM (inactive) | GI50 [10]: > 100 µM (inactive) | GI50 [11]: > 100 µM (inactive) | GI50 [20]: > 100 µM (inactive) | GI50 [13]: > 100 µM (inactive) | GI50 [14]: > 100 µM (inactive) | GI50 [15]: > 100 µM (inactive) | GI50 [16]: > 100 µM (inactive) | GI50 [17]: > 100 µM (inactive) | GI50 [18]: > 100 µM (inactive) | GI50 [19]: > 100 µM (inactive)

CCOC(=O)CCCN
GI50 [1]: > 100 µM (inactive) | GI50 [2]: > 100 µM (inactive) | GI50 [3]: > 100 µM (inactive) | GI50 [4]: > 100 µM (inactive) | GI50 [5]: > 100 µM (inactive) | GI50 [6]: > 100 µM (inactive) | GI50 [7]: > 100 µM (inactive) | GI50 [8]: > 100 µM (inactive) | GI50 [9]: > 100 µM (inactive) | GI50 [10]: > 100 µM (inactive) | GI50 [11]: > 100 µM (inactive) | GI50 [12]: > 100 µM (inactive) | GI50 [13]: > 100 µM (inactive) | GI50 [14]: > 100 µM (inactive) | GI50 [15]: > 100 µM (inactive) | GI50 [16]: > 100 µM (inactive) | GI50 [17]: > 100 µM (inactive) | GI50 [18]: > 100 µM (inactive) | GI50 [19]: > 100 µM (inactive)

Sc1nnc(C23CC4CC(CC(C4)C2)C3)n1-c1ccc(Cl)cc1
GI50 [1]: 13.5 µM (inactive) | GI50 [2]: 10.9 µM (inactive) | GI50 [3]: 15.4 µM (inactive) | GI50 [4]: 22.3 µM (inactive) | GI50 [5]: 22.1 µM (inactive) | GI50 [6]: 8.75 µM (inactive) | GI50 [7]: 23.3 µM (inactive) | GI50 [9]: 11.6 µM (inactive) | GI50 [10]: 20.1 µM (inactive) | GI50 [11]: 8.41 µM (inactive) | GI50 [20]: 3.07 µM (inactive) | GI50 [12]: 20.2 µM (inactive) | GI50 [13]: 11.2 µM (inactive) | GI50 [14]: 13.1 µM (inactive) | GI50 [15]: 4.36 µM (inactive) | GI50 [16]: 15.5 µM (inactive) | GI50 [17]: 14.2 µM (inactive) | GI50 [18]: 14.1 µM (inactive) | GI50 [19]: 20 µM (inactive)

O=c1[nH]cnc2c(C3OC(CO)C(O)C3O)c[nH]c12 (stereo not given)
GI50 [1]: > 100 µM (inactive) | GI50 [3]: > 100 µM (inactive) | GI50 [4]: > 100 µM (inactive) | GI50 [5]: > 100 µM (inactive) | GI50 [6]: > 100 µM (inactive) | GI50 [7]: > 100 µM (inactive) | GI50 [8]: 68.7 µM (inactive) | GI50 [9]: > 100 µM (inactive) | GI50 [10]: > 100 µM (inactive) | GI50 [11]: > 100 µM (inactive) | GI50 [20]: > 100 µM (inactive) | GI50 [12]: > 100 µM (inactive) | GI50 [13]: > 100 µM (inactive) | GI50 [14]: > 100 µM (inactive) | GI50 [15]: > 100 µM (inactive) | GI50 [17]: > 100 µM (inactive) | GI50 [18]: > 100 µM (inactive) | GI50 [19]: > 100 µM (inactive)
